Test results as given in US20200390722A1, “COMPOSITIONS AND METHODS FOR THE REMOVAL OF EAR WAX” (Specialty Drug and Device, LLC, priority 2016, published 2020).

What was measured:
[1] = Test-tube comparison of SFA (F6H8) and common remedies on about 100 mg dog cerumen (Example 2); set-up: key to Effects on Ear Wax (Cerumen) Samples: NC, No Change; BP, Bubbles Produced; SG, Softening; FD, Fully Dispersed; settings: for Effects on Ear Wax (Cerumen) Samples: Dog; for Visible changes to ear wax samples (in words): dog, 30 seconds with gentle agitation
Description: (§1) Approximately 100 mg of human ear wax was weighed into each of four small test tubes and numbered 1-4. In a second series, approximately 100 mg of animal cerumen from dogs was placed into four different test tubes and numbered 5-8. About 1 ml of the following material was then added to the respective dishes as follows: (1) to tubes #1 and 5, F6H8; (2) to tubes #2 and 6, hydrogen peroxide, 3%; (3) to tubes #3 and 7, carbamide peroxide, 6.5% (Murine Earwax Removal Drops); and (4) to tubes #4 and 8, sodium bicarbonate, 5% (prepared by dissolved 5 grams of sodium bicarbonate in 100 ml of distilled water. Results of these studies are presented in Table 1, below.

[2] = Test-tube comparison of SFA (F6H8) and common remedies on about 100 mg human ear wax (Example 2); set-up: key to Effects on Ear Wax (Cerumen) Samples: NC, No Change; BP, Bubbles Produced; SG, Softening; FD, Fully Dispersed; settings: for Effects on Ear Wax (Cerumen) Samples: Human; for Visible changes to ear wax samples (in words): human, 30 seconds with gentle agitation
Description: as §1

[3] = Cotton bud laden with dog ear wax swirled through about 1 ml F6H8 (initial studies, Example 1); settings: dog cerumen on cotton bud swirled or shaken in F6H8; hair particles etc. not dissolved
Description: (§2) In these studies, which are reflected below in Table 1, samples of ear wax were collected on cotton buds from animals or humans. A portion of each sample was placed into a small tube containing an SFA (F6H8) and gently shaken.
(§3) The invention is based in substantial part upon initial studies that provided surprising results. A small quantity of F6H8 semi-fluorinated alkane was placed into each of 5 test tubes. Samples of cerumen from animal or human ears were collected on cotton buds. Sufficient ear wax was collected that quantities of the material were visible on cotton buds used to harvest the materials. Separate cotton buds were used to collect cerumen from four dogs and two humans. In a step-wise manner, one cotton bud, laden with ear wax, was gently swirled through a single test tube containing an aliquot of F6H8 SFA. The study was repeated three times for cotton buds with ear wax from dogs and a second series of two tests, as previously described, were carried-out with cotton buds laden with human cerumen. […] Importantly, in the study the cerumen was dissolved by the SFA but the other matter (hair particles, etc.) were not dissolved. […] Such products include MURINE® Ear Drops, DEBROX® Earwax Removal, Flents Earwax Remover, and CERUMENEX® and also includes patents for compositions containing glycerin, glycols, peroxide plus urea and cyclodextrin containing compositions. […]

[4] = Cotton bud laden with human ear wax swirled through about 1 ml F6H8 (initial studies, Example 1); settings: human cerumen on cotton bud swirled or shaken in F6H8; hair particles etc. not dissolved
Description: as §2, §3

accumulation of ear wax [5] = experiment: Prophylaxis to prevent or retard accumulation of ear wax, one dog (Example 4); assay type: in vivo
Description: (§4) The effectiveness of F6H8 as a prophylaxis to prevent or retard accumulation of ear wax was evaluated in one human and one dog. The ear canal of the person and the canine were cleaned thoroughly prior to the evaluation of prophylaxis with SFA. Then, on a regular basis (five of seven days on average), 20-25 ul of F6H8 were applied to a cotton bud and the right ear only of each subjects was gently swabbed for about 15 seconds. In each instance, the contralateral ear served as a control in this study. […] Visual observation was confirmed by using a clean cotton bud to swab each ear of both subjects for 10-15 seconds.

accumulation of ear wax [6] = experiment: Prophylaxis to prevent or retard accumulation of ear wax, one human (Example 4); assay type: in vivo
Description: as §4

[7] = 30 Seconds, about 1 ml on approx. 100 mg cerumen, gentle agitation
[8] = 30 Seconds, about 1 ml on approx. 100 mg ear wax, gentle agitation
[9] = 20-25 ul on cotton bud, about five of seven days, end of three month trial
[10] = swab 10-15 seconds at end of three month trial

SMILES	Effects on Ear Wax (Cerumen) Samples ([1]; 5 Minutes)	Effects on Ear Wax (Cerumen) Samples ([1]; 15 Minutes)	Effects on Ear Wax (Cerumen) Samples [1, 7]	Visible changes to ear wax samples (in words) [1]	Effects on Ear Wax (Cerumen) Samples ([2]; 5 Minutes)	Effects on Ear Wax (Cerumen) Samples ([2]; 15 Minutes)	Effects on Ear Wax (Cerumen) Samples [2, 8]	Visible changes to ear wax samples (in words) [2]	Dissolution of cerumen from the ear wax sample (in words) [3]	Dissolution of cerumen from the ear wax sample (in words) [4]	Visual observation of treated right ear vs untreated contralateral ear (accumulation of ear wax [5]; [9])	Ear wax collected by clean cotton bud from treated right ear vs untreated left ear (accumulation of ear wax [5]; [10])	Visual observation of treated right ear vs untreated contralateral ear (accumulation of ear wax [6]; [9])	Ear wax collected by clean cotton bud from treated right ear vs untreated left ear (accumulation of ear wax [6]; [10])
OO [Hydrogen Peroxide, 3%, hydrogen peroxide]	BP	SG and BP,	NC	failed to produce visible changes	BP	SG and BP,	NC	failed to produce visible changes	–	–	–	–	–	–
O=C([O-])O.[Na+] [Sodium Bicarbinate, 5%, sodium bicarbonate]	NC	NC	NC	failed to produce visible changes	NC	NC	NC	failed to produce visible changes	–	–	–	–	–	–
CCCCCCCCC(F)(F)C(F)(F)C(F)(F)C(F)(F)C(F)(F)C(F)(F)F [SFA (F6H8)]	FD	FD	FD	–	FD	FD	FD	–	dissolved completely	dissolved completely	visibly cleaner and contained less ear wax and associated hair and other debris	collected less ear wax	visibly cleaner and contained less ear wax and associated hair and other debris	collected less ear wax
